{"source": "patent EP4512398A1", "about": "“FLURALANER FOR USE IN METHODS OF TREATMENT AND PREVENTION OF SEA LICE INFESTATION IN FISH” (Bimeda Animal Health Limited, priority 2023, dated 2025)", "origin": "cited, not measured here", "test_system": "parasites with resistance to organophosphates, pyrethroids and carbamates", "conditions": "bio-assays, background statement; cited from earlier work", "data": [{"smiles": "Cc1cc(C2=NOC(c3cc(Cl)cc(Cl)c3)(C(F)(F)F)C2)ccc1C(=O)NCC(=O)NCC(F)(F)F", "note": "(stereo not shown) [fluralaner, Fluralaner]", "values": [{"measurement": "efficacy against parasites with resistance to organophosphates, pyrethroids and carbamates", "value": "effective"}]}]}
